Each structure is given as a SMILES string.

The term logD denotes the decadic logarithm of the distribution of all forms, ionised or not, between an organic phase and buffer at a given pH.

This data set in a line: method code SF-HPLC, from DOI: 10.1016/s0968-0896(00)00015-8, PMID: 10819159. To be noted: pH 7.4.
For the compound `CC(C)(C)C(=O)OCN(Nc1ccc([N+](=O)[O-])cc1Oc1ccccc1)S(C)(=O)=O`, the pH-dependent lipophilicity (logD) was found to be 3.96.
Turning to `Nc1ccc(S(=O)(=O)N(COC(=O)c2ccccc2)c2ncccn2)cc1`, the logD turned out to be 2.15.
For the compound `Cc1cc(C)nc(N(COC(=O)C(C)(C)C)S(=O)(=O)c2ccc(N)cc2)n1`, the logD came out at 3.07.
For `CCOC(=O)CN(C)C(=O)OCN(c1ccc([N+](=O)[O-])cc1Oc1ccccc1)S(C)(=O)=O`, the logD was found to be 2.2.
For the compound `COC(=O)C1CCCN1C(=O)OCN(c1ccc([N+](=O)[O-])cc1Oc1ccccc1)S(C)(=O)=O` (stereo not given), the pH-dependent lipophilicity (logD) was 2.85.
Regarding `Nc1ccc(S(=O)(=O)N(COC(=O)c2ccccc2)c2cncs2)cc1`, the pH-dependent lipophilicity (logD) turned out to be 1.47.
`Cc1cc(C)nc(N(COC(=O)c2ccccc2)S(=O)(=O)c2ccc(N)cc2)n1` displayed a logD of 3.59.
The figure for `CCOC(=O)CNC(=O)OCN(c1ccc([N+](=O)[O-])cc1Oc1ccccc1)S(C)(=O)=O` is 2.28; for `CS(=O)(=O)N(COC(=O)c1ccccc1)c1ccc([N+](=O)[O-])cc1Oc1ccccc1` it is 3.97; for `Cc1noc(N(COC(=O)c2ccccc2)S(=O)(=O)c2ccc(N)cc2)c1C` it is 2.83.

The record behind these values is the SangsterLogP compilation.
